For 13 compounds, EC50 results are on record in patent US20250051355A1, “COMPOUNDS, COMPOSITIONS, AND METHODS” (ACONCAGUA BIO, INC., priority 2023, published 2025).

Test [1] deals with T1, human calcitonin receptor (CTR) (Homo sapiens, UniProt P30988).
T1 construct: expressed in transfected cells; host or cells: COS-7 (COS7-human CTR Clone #2)
T1 sequence (P30988 25-474): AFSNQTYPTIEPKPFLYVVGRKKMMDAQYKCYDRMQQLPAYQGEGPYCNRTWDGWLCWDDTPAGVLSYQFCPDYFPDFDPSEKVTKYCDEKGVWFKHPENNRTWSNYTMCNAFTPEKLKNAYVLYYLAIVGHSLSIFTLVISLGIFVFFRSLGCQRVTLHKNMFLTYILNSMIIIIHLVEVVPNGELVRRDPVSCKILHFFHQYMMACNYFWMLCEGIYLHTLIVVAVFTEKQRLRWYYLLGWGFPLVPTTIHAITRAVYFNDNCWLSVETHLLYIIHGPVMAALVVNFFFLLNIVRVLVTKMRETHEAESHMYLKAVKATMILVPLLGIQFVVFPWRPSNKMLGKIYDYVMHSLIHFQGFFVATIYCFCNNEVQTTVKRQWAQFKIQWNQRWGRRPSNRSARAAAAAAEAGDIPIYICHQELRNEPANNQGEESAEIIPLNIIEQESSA
Nature of the test: Calcitonin receptor (CTR) cAMP Assay. Conditions: COS7-human CTR Clone #2 cells, cAMP dynamic 2 kit; read-out: Calcitonin Receptor cAMP Stimulation Activity: EC50. Type of test: cell-based. The text has this: Calcitonin receptor (CTR) cAMPAssay
The calcitonin receptor (CTR) belongs to the subfamily of GPCRs known as the secretin or ‘B’ family of GPCRs. Like other class B1 GPCRs, the CT receptor family is canonically coupled to Gs-mediated cAMP production, and measurement of cAMP accumulation has been the primary assay used to determine peptide selectivity and potency.
(§1) To optimize functional activity directed toward Gas coupling, COS-7 cells were stably transfected with human calcitonin receptor (CTR) to create COS7-human CTR Clone #2 stable cell line. 100× concentration of compound working solutions were prepared with 4-fold serial dilution in 384-well Echo LDV plate (Labcyte, Cat #LP-0200-BC). 200 nL/well 100×concentration of compound working solutions were moved to 384-well white microplate (Perkin Elmer, Cat #6007680) using Labcyte ECHO550. […] cells/mL COS7-human CTR Clone #2 cell suspensions prepared with assay buffer [HBSS containing 20 mM HEPES (Gibco, Cat #15630-080), 0.5 mM IBMX (Sigma, Cat #15879) and 0.1% Casein (Sigma, Cat #C4765)], 20 μL cell suspensions were added to each well of previous generated assay plate which already contains 200 nL compound at 100×concentration using ThermoFisher Multidrop Combi (2000 cells/well). Seal the plate and incubate at 37° C. with 5% CO2 for 30 min.
After incubation, the cAMP assay signal was generated using cAMP dynamic 2 kit (Revvity, Cat #62AM4PEC). […] cAMP-d2 working solution was added to each well, followed by 10 μL Anti-cAMP antibody-cryptate working solution which was added to each well using CERTUS FLEX LIQUID DISPENSER The samples were then incubated at room temperature for 1 hour protected from light. the fluorescence was read at 665 and 615 nm with Reader PerkinElmer EnVision 2105.

Test [2] concerns the target human calcitonin receptor (CTR) and RAMP3 (AMY3) (Homo sapiens, UniProt O60896+P30988). Nature of the test: Amylin Receptor cAMP Assay II. The class given is cell-based. Conditions: COS-7/AMY3 cells, cAMP dynamic 2 kit, read-out: Amylin Receptor cAMP Stimulation Activity: EC50.
Excerpt: Amylin Receptor cAMPAssay II
AMYRs are heterodimers of the class B calcitonin (CT) G-protein-coupled receptor (CTR) and receptor activity-modifying proteins (RAMPs). All three RAMPs can interact with the CTR and form AMY1, AMY2, AMY3 with RAMP1, RAMP2 and RAMP3, respectively. Like other class B1 GPCRs, the CT receptor family is canonically coupled to Gs-mediated cAMP production, and measurement of cAMP accumulation has been the primary assay used to determine peptide selectivity and potency.
as §1, with “and RAMP3, simultaneously. 100×concentration” for “to create COS7-human CTR Clone #2 stable cell line. 100× concentration”, “COS-7/AMY3” for “COS7-human CTR Clone #2”
After incubation, the cAMP assay signal was generated using cAMP dynamic 2 kit (Revvity, Cat #62AM4PEC). 10 μL cAMP-d2 working solution was added to each well, followed by 10 μL Anti-cAMP antibody-cryptate working solution which was added to each well using CERTUS FLEX LIQUID DISPENSER The samples were then incubated at room temperature for 1 hour protected from light. the fluorescence was read at 665 and 615 nm with Reader PerkinElmer EnVision 2105.

The EC50 is the concentration at which the effect is half-maximal.

human calcitonin receptor (CTR) and RAMP3 (AMY3), sequence (O60896 24-148, one chain of several): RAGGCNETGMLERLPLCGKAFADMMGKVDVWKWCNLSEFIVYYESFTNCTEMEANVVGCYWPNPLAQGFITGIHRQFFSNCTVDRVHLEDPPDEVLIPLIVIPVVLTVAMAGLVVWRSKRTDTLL

In the case of `Cc1nnc(-c2c(CCC3CCOCC3)nc3c(c2-c2cc4ncnc(N[C@@H]5CCc6ncccc65)c4s2)S(=O)(=O)CC3C(C)C)o1` (stereo partly drawn) [Compound 89, N—(R)-4-aza-1-indanyl(2-(3-isopropyl-6-(5-methyl-1,3,4-oxadiazol-2-yl)-1,1-dioxo-5-[2-(tetrahydro-2H-pyran-4-yl)ethyl]-1λ^6-thia-4-aza-7-indanyl}-1-thia-4,6-diaza-7-indenyl)amine], the concentration for a half-maximal effect (EC50) in test [1] stood at 42.9 nM; in test [2] it was 587 nM.
In the case of `Cc1nnc(-c2c(CCC3CCOCC3)nc3c(c2-c2cc4ccnc(N[C@@H]5CCc6ncccc65)c4o2)S(=O)(=O)CC3C(C)C)o1` (stereo partly drawn) [Compound 90, N—(R)-4-aza-1-indanyl(2-(3-isopropyl-6-(5-methyl-1,3,4-oxadiazol-2-yl)-1,1-dioxo-5-[2-(tetrahydro-2H-pyran-4-yl)ethyl]-1λ^6-thia-4-aza-7-indanyl}-1-oxa-6-aza-7-indenyl)amine], the EC50 amounted to 998 nM in test [1] and 1580 nM in test [2].
Taken in the same sequence, the figures for `Cc1cc(-c2c(CCC3CCOCC3)nc3c(c2-c2cc4ccnc(N[C@@H]5CCc6ncccc65)c4s2)S(=O)(=O)CC3C(C)C)ccn1` (stereo partly drawn) [Compound 91, 7-(7-(((R)-6,7-dihydro-5H-cyclopenta[b]pyridin-5-yl)amino)thieno[2,3-c]pyridin-2-yl)-3-isopropyl-6-(2-methylpyridin-4-yl)-5-(2-(tetrahydro-2H-pyran-4-yl)ethyl)-2,3-dihydrothieno[3,2-b]pyridine 1,1-dioxide] were 45.2 nM and 499 nM.
Take `Cc1cc(-c2c(CCC3CCOCC3)nc3c(c2-c2cc4ccnc(N[C@@H]5CCc6ncccc65)c4s2)S(=O)(=O)CC3C(C)C)ncn1` (stereo partly drawn) [Compound 92, N—(R)-4-aza-1-indanyl(2-(3-isopropyl-6-(6-methyl-4-pyrimidinyl)-1,1-dioxo-5-[2-(tetrahydro-2H-pyran-4-yl)ethyl]-1λ^6-thia-4-aza-7-indanyl}-1-thia-6-aza-7-indenyl)amine]: the EC50 in test [1] is 117 nM; in test [2], 540 nM.
In the case of `Cc1nnc(-c2c(CCC3CCOCC3)nc3c(c2-c2cc4ccnc(N[C@H](C)c5cncc(F)c5)c4s2)S(=O)(=O)CC3C(C)C)o1` (stereo partly drawn) [Compound 93, [(R)-1-(5-fluoro-3-pyridyl)ethyl](2-(3-isopropyl-6-(5-methyl-1,3,4-oxadiazol-2-yl)-1,1-dioxo-5-[2-(tetrahydro-2H-pyran-4-yl)ethyl]-1λ^6-thia-4-aza-7-indanyl}-1-thia-6-aza-7-indenyl)amine], the EC50 in test [1] came out at 42.2 nM; in test [2], 471 nM.
As to `Cc1nnc(-c2c(CCC3CCOCC3)nc3c(c2-c2cc4ccnc(N[C@@H]5CCc6ncccc65)c4s2)S(=O)(=O)CC3C)o1` (stereo partly drawn) [Compound 94, N—(R)-4-aza-1-indanyl(2-(3-methyl-6-(5-methyl-1,3,4-oxadiazol-2-yl)-1,1-dioxo-5-[2-(tetrahydro-2H-pyran-4-yl)ethyl]-1λ^6-thia-4-aza-7-indanyl}-1-thia-6-aza-7-indenyl)amine], the concentration giving a half-maximal response (EC50) in test [1] stood at 179 nM; in test [2], 1150 nM.
In the same order, the values of `Cc1nnc(-c2c(CCC3CCOCC3)nc3c(c2-c2cc4ccnc(N[C@@H]5CCc6ncccc65)c4s2)C(=O)N2CCOC[C@@H]32)o1` [Compound 95, (R)-4-(7-(((R)-6,7-dihydro-5H-cyclopenta[b]pyridin-5-yl)amino)thieno[2,3-c]pyridin-2-yl)-3-(5-methyl-1,3,4-oxadiazol-2-yl)-2-(2-(tetrahydro-2H-pyran-4-yl)ethyl)-7,8,10,10a-tetrahydro-5H-pyrido[2′,3′:3,4]pyrrolo[2,1-c][1,4]oxazin-5-one] are 35.6 nM and 857 nM.
`Cc1nnc(-c2c(CC3CCOCC3)nc3c(c2-c2cc4ccnc(N[C@@H]5CCc6ncccc65)c4s2)S(=O)(=O)CC3C(C)C)o1` (stereo partly drawn) [Compound 96, N—(R)-4-aza-1-indanyl(2-(3-isopropyl-6-(5-methyl-1,3,4-oxadiazol-2-yl)-1,1-dioxo-5-[(tetrahydro-2H-pyran-4-yl)methyl]-1λ^6-thia-4-aza-7-indanyl}-1-thia-6-aza-7-indenyl)amine]: the EC50 in test [1] turned out to be 226 nM; in test [2], 1300 nM.
As to `COc1noc(-c2c(CCc3ccc(F)cc3)nc3c(c2-c2cc4ccnc(N[C@@H]5CCc6c(OC)cccc65)c4s2)C(=O)N2CCC[C@@H]32)n1` [Compound 97, (S)-2-(4-fluorophenethyl)-3-(3-methoxy-1,2,4-oxadiazol-5-yl)-4-(7-(((R)-4-methoxy-2,3-dihydro-1H-inden-1-yl)amino)thieno[2,3-c]pyridin-2-yl)-7,8,9,9a-tetrahydro-5H-pyrido[2,3-a]pyrrolizin-5-one], the results for the EC50 in test [1] and in test [2] were 20.7 nM and 318 nM, respectively.
With `Cc1nnc(-c2c(CCC3CC(C)OC(C)C3)nc3c(c2-c2cc4ncnc(N[C@@H]5CCc6ncccc65)c4s2)S(=O)(=O)CC3C(C)C)o1` (stereo partly drawn) [Compound 98, N—(R)-4-aza-1-indanyl(2-(5-[2-(2,6-dimethyltetrahydro-2H-pyran-4-yl)ethyl]-3-isopropyl-6-(5-methyl-1,3,4-oxadiazol-2-yl)-1,1-dioxo-1λ^8-thia-4-aza-7-indanyl}-1-thia-4,6-diaza-7-indenyl)amine], the EC50 worked out at 39.2 nM in test [1] and 352 nM in test [2].
Regarding `Cc1nnc(-c2c(CCC3CCOC3)nc3c(c2-c2cc4ncnc(N[C@@H]5CCc6ncccc65)c4s2)S(=O)(=O)CC3C(C)C)o1` (stereo partly drawn) [Compound 99, N—(R)-4-aza-1-indanyl(2-(3-isopropyl-6-(5-methyl-1,3,4-oxadiazol-2-yl)-1,1-dioxo-5-[2-(tetrahydro-3-furyl)ethyl]-1λ^6-thia-4-aza-7-indanyl}-1-thia-4,6-diaza-7-indenyl)amine], the half-maximal effective concentration (EC50) worked out at 208 nM in test [1] and 1900 nM in test [2].
Turning to `Cc1nnc(-c2c(CCC3CCCO3)nc3c(c2-c2cc4ncnc(N[C@@H]5CCc6ncccc65)c4s2)S(=O)(=O)CC3C(C)C)o1` (stereo partly drawn) [Compound 100, N—(R)-4-aza-1-indanyl(2-(3-isopropyl-6-(5-methyl-1,3,4-oxadiazol-2-yl)-1,1-dioxo-5-[2-(tetrahydro-2-furyl)ethyl]-1λ^6-thia-4-aza-7-indanyl}-1-thia-4,6-diaza-7-indenyl)amine], the concentration giving a half-maximal response (EC50) is 184 nM in test [1] and 6180 nM in test [2].
As to `Cc1cnc(-c2c(CCC3CCOCC3)nc3c(c2-c2ccc4c(c2)oc(=O)n4Cc2ccc(C#N)cn2)C(=O)N2CCC[C@@H]32)o1` [Compound 101], the EC50 in test [1] turned out to be 2.23 nM; in test [2] it was 38.1 nM.
